{"source": "patent US12064407B2", "about": "(priority 2017, dated 2024)", "molecules": {"B1": {"name": "Ozanezumab: human anti-Nogo-A antibody from GlaxoSmithKline (antibody, chains of the INN, looked up, V domains shown)", "VH": "QVQLVQSGAEVKKPGASVKVSCKASGYTFTSYWMHWVRQAPGQGLEWIGNINPSNGGTNYNEKFKSKATMTRDTSTSTAYMELSSLRSEDTAVYYCELMQGYWGQGTLVTVSS", "VL": "DIVMTQSPLSNPVTLGQPVSISCRSSKSLLYKDGKTYLNWFLQRPGQSPQLLIYLMSTRASGVPDRFSGGGSGTDFTLKISRVEAEDVGVYYCQQLVEYPLTFGQGTKLEIK"}, "B2": {"name": "LIGHT: lymphotoxin-like inducible member of the TNF superfamily protein, pro-inflammatory cytokine (protein, UniProt O43557 83-240, looked up)", "Tumor necrosis factor ligand …": "LIQERRSHEVNPAAHLTGANSSLTGSGGPLLWETQLGLAFLRGLSYHDGALVVTKAGYYYIYSKVQLGGVGCPLGLASTITHGLYKRTPRYPEELELLVSQQSPCGRATSSSRVWWDSSFLGGVVHLEAGEKVVVRVLDERLVRLRDGTRSYFGAFMV"}, "B3": {"name": "ERVK SU: ERVK envelope surface unit protein devoid of the CTXLP domain (SEQ ID NO: 3) (protein)", "chain": "MNPSEMQRKAPPRRRRHRNRAPLTHKMNKMVTSEEQMKLPSTKKAEPPTWAQLKKLTQLATKYLENTKVTQTPESMLLAALMIVSMVVSLPMPAGAAAANYTYWAYVPFPPLIRAVTWMDNPIEIYVNDSVWVPGPTDDCCPAKPEEEGMMINISIGYRYPPICLGRAPGCLMPAVQNWLVEVPTVSPISRFTYHMVSGMSLRPRVNYLQDFSYQRSLKFRPKGKPCPKEIPKESKNTEVLVWEECVANSAVILQNNEFGTLIDWAPRGQFYHNCSGQTQSCPSAQVSPAVDSDLTESLDKHKHKKLQSFYPWEWGEKGISTARPKIISPVSGPEHPELWRLTVASHHIRIWSGNQTLETRDRKPFYTIDLNSSLTVPLQSCVKPPYMLVVGNIVIKPDSQTITCENCRLLTCIDSTFNWQHRILLVRAREGVWIPVSMDRPWEASPSVHILTEVLKGVLNRSKR", "modifications": "Endogenous retrovirus K (from homo sapiens)"}}, "key": {"CTXLP": {"tested_on": "CTXLP", "assay": "Endogenous CTXLP in SVGA astrocytes treated with gambogic acid", "type": "cell-based, human", "details": "SVGA cells, gambogic acid 0.25 and 0.5 μM", "method": "FIG. 57 depicts that endogenous levels of CTXLP in human astrocytes can be depleted in the presence of gambogic acid. Human astrocytic cell line SVGA were treated with increasing doses of gambogic acid in the low micromolar range (0.25 and 0.5 μM)."}, "NOGO-A [1]": {"tested_on": "NOGO-A", "details": "ReNcell CX neurospheres, 24 hours, 1 ng/ml TNFα; for TNFα-induced NOGO-A expression in human neurospheres: 0.5 μM GA", "procedure": "(§1) The ReNcell CX neuroprogenitor cell line was grown in suspension to produce human neurospheres (approximately 0.5 mm diameter). Neurospheres were treated for 24 hours in neurobasal media alone, or with or without 1 ng/ml TNFα and/or 0.5 μM gambogic acid (GA). Cells were collected, protein extracted, and western blot performed to measure the expression of soluble (standard lysis) and insoluble (RIPA lysis) proteins for ERVK CTXLP, CaV2.2 C-terminal calcium channel-associated transcriptional regulator (CaV2.2 CCAT) and NOGO-A, as compared to β-actin loading control."}, "ERVK CTXLP [2]": {"tested_on": "ERVK CTXLP", "details": "ReNcell CX neurospheres, 24 hours, 1 ng/ml TNFα; for TNFα-induced CTXLP expression in human neurospheres: 0.5 μM GA", "procedure": "as §1"}, "NOGO-A [3]": {"tested_on": "NOGO-A", "details": "24 hours, GA 0.1, 0.25, 1 and 2.5 μM", "procedure": "The ERVK-expressing NCCIT teratocarcinoma cell line was grown in a monolayer in RMPI 1640 media supplemented with FetalGro. Cells were treated for 24 hours with increasing doses of gambogic acid (GA, 0.1, 0.25, 1 and 2.5 μM). Cells were collected, protein extracted, and western blot performed to measure the expression of ERVK CTXLP, CaV2.2 C-terminal calcium channel-associated transcriptional regulator (CaV2.2 CCAT) and NOGO-A, as compared to β-actin loading control."}, "CaV1.2 CCAT": {"tested_on": "CaV1.2 CCAT", "details": "2.5 mM EGTA; 65 mM KCI; 100 μM glutamate; cited from earlier work"}, "ERVK CTXLP [4]": {"tested_on": "ERVK CTXLP", "details": "ReNcell-derived neurons, 24 hours, n=1", "procedure": "ReNcell-derived neurons were treated with increasing doses of pro-inflammatory cytokines TNFα or LIGHT for 24 hours."}, "[5]": {"tested_on": "interferon response elements (ISREs) within the ERVK promoter (5′ LTR)", "type": "binding, human"}, "NOGO-A [6]": {"target": "T1, NOGO-A (Homo sapiens, UniProt Q9NQC3)", "T1 construct": "host or cells: ALS patients (clinical trials cited from the literature)", "T1 sequence (Q9NQC3 1-1192)": "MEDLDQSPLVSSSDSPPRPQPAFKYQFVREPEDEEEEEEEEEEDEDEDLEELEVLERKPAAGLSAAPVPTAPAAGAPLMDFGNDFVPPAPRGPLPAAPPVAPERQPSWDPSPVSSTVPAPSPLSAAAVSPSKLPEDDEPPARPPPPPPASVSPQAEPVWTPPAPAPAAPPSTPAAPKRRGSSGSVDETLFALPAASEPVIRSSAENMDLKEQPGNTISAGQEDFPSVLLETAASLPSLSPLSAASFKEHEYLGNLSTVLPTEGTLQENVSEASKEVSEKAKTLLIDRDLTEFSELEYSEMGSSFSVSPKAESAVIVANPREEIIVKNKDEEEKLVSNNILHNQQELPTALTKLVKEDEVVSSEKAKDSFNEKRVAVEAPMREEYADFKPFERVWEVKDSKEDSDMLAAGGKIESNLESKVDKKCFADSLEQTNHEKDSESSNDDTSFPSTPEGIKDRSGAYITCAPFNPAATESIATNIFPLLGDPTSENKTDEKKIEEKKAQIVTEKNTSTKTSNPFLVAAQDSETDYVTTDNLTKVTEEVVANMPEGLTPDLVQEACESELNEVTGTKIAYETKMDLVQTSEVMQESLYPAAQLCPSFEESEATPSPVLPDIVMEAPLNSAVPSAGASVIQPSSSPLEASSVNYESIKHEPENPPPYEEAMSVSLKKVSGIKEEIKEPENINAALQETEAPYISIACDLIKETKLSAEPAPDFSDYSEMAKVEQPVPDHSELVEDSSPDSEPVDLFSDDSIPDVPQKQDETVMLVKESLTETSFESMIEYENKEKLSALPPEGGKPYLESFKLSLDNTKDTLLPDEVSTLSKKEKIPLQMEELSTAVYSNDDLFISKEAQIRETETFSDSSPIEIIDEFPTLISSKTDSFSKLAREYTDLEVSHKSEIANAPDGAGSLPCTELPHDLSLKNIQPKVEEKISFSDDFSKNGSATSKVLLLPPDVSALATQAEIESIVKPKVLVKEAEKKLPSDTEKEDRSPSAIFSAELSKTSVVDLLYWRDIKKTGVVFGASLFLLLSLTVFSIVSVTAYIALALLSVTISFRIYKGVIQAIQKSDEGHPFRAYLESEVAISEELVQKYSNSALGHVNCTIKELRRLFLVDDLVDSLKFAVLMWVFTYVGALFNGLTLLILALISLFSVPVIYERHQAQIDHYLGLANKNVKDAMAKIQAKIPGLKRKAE", "details": "patients with ALS, intravenous infusions; cited from earlier work"}, "[7]": {"tested_on": "CaV2.2 calcium channel-associated transcription regulator (CCAT)", "type": "cell-based, human"}, "IRF7": {"tested_on": "IRF7", "type": "cell-based"}, "NF-κB p65 [8]": {"tested_on": "NF-κB p65", "type": "cell-based"}, "NF-κB p65 [9]": {"tested_on": "NF-κB p65", "type": "cell-based", "remark": "listed apart in the source"}, "[10]": {"tested_on": "NF-κB p65 and p50 proteins", "type": "cell-based, human"}}, "note": "Like-named read-outs stand apart in the source and are kept apart here.", "data": [{"molecule": "CC(C)=CCC[C@]1(C)C=Cc2c(O)c3c(c(CC=C(C)C)c2O1)O[C@]12C(=C[C@@H]4C[C@H]1C(C)(C)O[C@@]2(C/C=C(/C)C(=O)O)C4=O)C3=O", "note": "[Gambogic acid, gambogic acid]", "values": [{"measurement": "endogenous levels of CTXLP in human astrocytes", "setting": "CTXLP", "value": "depleted"}, {"measurement": "TNFα-induced NOGO-A expression in human neurospheres", "setting": "NOGO-A [1]; listed as GA", "value": "blocked"}, {"measurement": "TNFα-induced NOGO-A expression in human neurospheres", "setting": "NOGO-A [1]; listed as gambogic acid", "value": "ameliorate"}, {"measurement": "TNFα-induced CTXLP expression in human neurospheres", "setting": "ERVK CTXLP [2]", "value": "blocks"}, {"measurement": "TNFα-induced CTXLP expression in human neurospheres", "setting": "ERVK CTXLP [2]; listed as gambogic acid", "value": "reduce inducible CTXLP expression"}, {"measurement": "NOGO-A expression in NCCIT cells", "setting": "NOGO-A [3]", "value": "potent inhibitor of Nogo-A"}, {"measurement": "NOGO-A expression in NCCIT cells", "setting": "NOGO-A [3]; listed as GA", "value": "dose-dependently reduces"}]}, {"molecule": "N[C@@H](CCC(=O)O)C(=O)O", "note": "[glutamate]", "values": [{"measurement": "CaV1.2 CCAT nuclear localization / nuclear CCAT levels in neurons", "setting": "CaV1.2 CCAT", "value": "decreased nuclear CCAT levels"}]}, {"molecule": "TNFα", "values": [{"measurement": "cytokine dose giving optimal enhancement of CTXLP expression (90 kDa form)", "setting": "ERVK CTXLP [4]", "value": 1, "unit": "ng/mL"}, {"measurement": "NOGO-A expression in neurospheres on TNFα", "setting": "NOGO-A [1]", "value": "enhances"}, {"measurement": "CTXLP expression in neurospheres on TNFα", "setting": "ERVK CTXLP [2]", "value": "enhances"}, {"measurement": "CTXLP chromatin binding on cytokine stimulation", "setting": "[5]", "value": "Notable increase"}]}, {"molecule": "O=C(O)CN(CCOCCOCCN(CC(=O)O)CC(=O)O)CC(=O)O", "note": "[EGTA]", "values": [{"measurement": "CaV1.2 CCAT nuclear localization / nuclear CCAT levels in neurons", "setting": "CaV1.2 CCAT", "value": "promote"}]}, {"molecule": "[Cl-].[K+]", "note": "[KCI]", "values": [{"measurement": "CaV1.2 CCAT nuclear localization / nuclear CCAT levels in neurons", "setting": "CaV1.2 CCAT", "value": "decreased nuclear CCAT levels"}]}, {"molecule": "[Ca+2].[Cl-].[Cl-]", "note": "[calcium chloride]", "values": [{"measurement": "caspase-3 expression in CTXLP-treated SVGA cells in the presence of excess calcium", "setting": "SVGA cells", "value": "blocked"}]}, {"molecule": "B1", "values": [{"measurement": "outcome of Phase II clinical ALS trials", "setting": "NOGO-A [6]", "value": "negative results"}]}, {"molecule": "B2", "values": [{"measurement": "cytokine dose giving optimal enhancement of CTXLP expression (90 kDa form)", "setting": "ERVK CTXLP [4]", "value": 10, "unit": "ng/mL"}]}, {"molecule": "B3", "values": [{"measurement": "CaV2.2 CCAT (75 kDa) expression in SVGA cells", "setting": "[7]", "value": "not"}, {"measurement": "mRNA expression of IRF7", "setting": "IRF7", "value": "neither protein was able to trigger an upregulation"}, {"measurement": "NF-κB p65 protein expression", "setting": "NF-κB p65 [8]", "value": "unable"}, {"measurement": "mRNA expression of NF-κB p65", "setting": "NF-κB p65 [9]", "value": "marked increase"}, {"measurement": "continued replication / cell density at later time points", "setting": "SVGA cells", "value": "able to continue to replicate"}, {"measurement": "NF-κB p65 and p50 protein expression", "setting": "[10]", "value": "not"}]}]}
